Source: patent US20020137929A1, “1 - (3-heterocyclylphenyl) isothiourea, -isourea, -guanidine and -amidine herbicidal agents” (Intellectual Property Department, BASF Aktiengesellschaft, priority 1998, published 2002)

How the values were obtained:
AMBEL (Ragweed, Common) = assay: Preemergence herbicidal evaluation; type: in vivo, Ambrosia artemisifolia; settings: preemergence, rated 4-5 weeks after treatment, 0-9 scale
Procedure, shortened: (§1)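 Visual 0-9 rating vs control (stand, vigor, malformation, size, chlorosis, overall appearance), scored 4-5 wk after spraying. Seeded soil cups were treated preemergence with compound in aqueous acetone, ~0.0156-0.500 kg/ha equivalent.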

CYPSE (Flatsedge) = assay: Preemergence weed control under flooded paddy conditions; type: in vivo, Cyperus serotinus; settings: rated 3-4 weeks after treatment
Procedure, shortened: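 Seeds or propagules sown in silt loam kept flooded 1.5-3 cm; compounds in 50/50 acetone/water pipetted into flood water at about 0.0313 to 0.500 kg/ha. Greenhouse; visual 0-9 rating versus untreated control 3-4 weeks after treatment.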

ABUTH (Velvetleaf) [1] = assay: Postemergence herbicidal evaluation; type: in vivo, Abutilon theophrasti; settings: postemergence
Procedure, shortened: (§2)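 Visual 0–9 rating versus control (stand, vigor, malformation, size, chlorosis, overall appearance), taken four to five weeks post-spray. Two-week-old seedlings received roughly 0.0156–0.500 kg/ha active in acetone/water (50/50) with 0.5% TWEEN 20 via nozzle at 40 psi.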

ZEAMX (Corn, Field) = assay: Postemergence herbicidal evaluation; type: in vivo, Zea mays; settings: postemergence
Procedure, shortened: as §2

[2] = tested on: IPOHE (Morningglory, Ivyleaf); assay: Preemergence herbicidal evaluation; type: in vivo, Ipomoea hederacea; settings: preemergence, rated 4-5 weeks after treatment, 0-9 scale
Procedure, shortened: as §1

CYPIR (Rice Flatsedge) = assay: Postemergence weed control under flooded paddy conditions; type: in vivo, Cyperus iria; settings: postemergence weeds, rated 3 to 4 weeks after treatment
Procedure, shortened: (§3)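 Herbicidal effect is judged by eye on a 0–9 scale versus control, 3–4 weeks after dosing. Dosing is into flood water kept 1.5–3 cm over the soil, at about 0.0313–0.500 kg/ha in aqueous/acetone 50/50 v/v, on 3–5 cm weeds and 1.5–2.5-leaf rice seedlings.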

CASOB (Sicklepod) = assay: Preemergence herbicidal evaluation; type: in vivo, Cassia obtusifolia; settings: preemergence, rated 4-5 weeks after treatment, 0-9 scale
Procedure, shortened: as §1

SETVI (Foxtail, Green) = assay: Postemergence herbicidal evaluation; type: in vivo, Setaria viridis; settings: postemergence
Procedure, shortened: as §2

ECHCG (Barnyardgrass) = assay: Preemergence herbicidal evaluation; type: in vivo, Echinochloa crus-galli; settings: preemergence, rated 4-5 weeks after treatment, 0-9 scale
Procedure, shortened: as §1

[3] = tested on: ECHORC (Watergrass (Calif.)); assay: Postemergence weed control under flooded paddy conditions; type: in vivo, Echinochloa oryzoides; settings: postemergence weeds, rated 3 to 4 weeks after treatment
Procedure, shortened: as §3

[4] = tested on: IPOHE (Morningglory, Ivyleaf); assay: Postemergence herbicidal evaluation; type: in vivo, Ipomoea hederacea; settings: postemergence
Procedure, shortened: as §2

[5] = tested on: GLXMAW (Soybean, Williams); assay: Postemergence herbicidal evaluation; type: in vivo, Glycine max, (L.) Merr. cv Williams; settings: postemergence
Procedure, shortened: as §2

ABUTH (Velvetleaf) [6] = assay: Preemergence herbicidal evaluation; type: in vivo, Abutilon theophrasti; settings: preemergence, rated 4-5 weeks after treatment, 0-9 scale
Procedure, shortened: as §1

[7] = tested on: ECHORC (Watergrass (Calif.)); assay: Preemergence weed control under flooded paddy conditions; type: in vivo, Echinochloa oryzoides; settings: rated 3-4 weeks after treatment
Procedure, shortened: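 Visual injury scored 0-9 against control three to four weeks post-treatment, greenhouse-grown. Application: acetone/water (50/50) solutions dosed directly into flood water (1.5-3 cm over silt loam, planted top 0.5 cm), roughly 0.0313 to 0.500 kg/ha active ingredient.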

## CN1C(=O)C(CC(=O)Nc2ccccc2)SC1=Nc1cc(-n2c(=O)cc(C(F)(F)F)n(C)c2=O)c(F)cc1Cl (centres unmarked) [Compound 91, 2-{{2-Chloro-5-[3,6-dihydro-3-methyl-2,6-dioxo-4-(trifluoromethyl)-1(2H)-pyrimidinyl]-4-fluorophenyl}imino}-3-methyl-4-oxo-5-thiazolidineacetanilide]
AMBEL (Ragweed, Common); 0.1250 kg/ha
  AMBEL rating: 0.0
AMBEL (Ragweed, Common); 0.2500 kg/ha
  AMBEL rating: 0.0
CYPSE (Flatsedge); 0.0313 kg/ha
  CYPSE herbicidal effect rating: 0.0
CYPSE (Flatsedge); 0.0625 kg/ha
  CYPSE herbicidal effect rating: 0.0
CYPSE (Flatsedge); 0.1250 kg/ha
  CYPSE herbicidal effect rating: 0.0
CYPSE (Flatsedge); 0.2500 kg/ha
  CYPSE herbicidal effect rating: 0.0
ABUTH (Velvetleaf) [1]; rate 0.0158 kg/ha
  ABUTH herbicidal rating: 7.0
ABUTH (Velvetleaf) [1]; rate 0.0315 kg/ha
  ABUTH herbicidal rating: 9.0
ABUTH (Velvetleaf) [1]; rate 0.0630 kg/ha
  ABUTH herbicidal rating: 9.0
ZEAMX (Corn, Field); rate 0.0158 kg/ha
  ZEAMX herbicidal rating: 4.0
ZEAMX (Corn, Field); rate 0.0315 kg/ha
  ZEAMX herbicidal rating: 4.0
ZEAMX (Corn, Field); rate 0.0630 kg/ha
  ZEAMX herbicidal rating: 5.0
[2]; 0.1250 kg/ha
  IPOHE rating: 0.0
[2]; 0.2500 kg/ha
  IPOHE rating: 0.0
CYPIR (Rice Flatsedge); Rate 0.0313 kg/ha
  Herbicidal rating CYPIR: 0.0
CYPIR (Rice Flatsedge); Rate 0.0625 kg/ha
  Herbicidal rating CYPIR: 0.0
CYPIR (Rice Flatsedge); Rate 0.1250 kg/ha
  Herbicidal rating CYPIR: 0.0
CYPIR (Rice Flatsedge); Rate 0.2500 kg/ha
  Herbicidal rating CYPIR: 0.0
CASOB (Sicklepod); 0.1250 kg/ha
  CASOB rating: 0.0
CASOB (Sicklepod); 0.2500 kg/ha
  CASOB rating: 0.0
SETVI (Foxtail, Green); rate 0.0158 kg/ha
  SETVI herbicidal rating: 0.0
SETVI (Foxtail, Green); rate 0.0315 kg/ha
  SETVI herbicidal rating: 0.0
SETVI (Foxtail, Green); rate 0.0630 kg/ha
  SETVI herbicidal rating: 0.0
ECHCG (Barnyardgrass); 0.1250 kg/ha
  ECHCG rating: 0.0
ECHCG (Barnyardgrass); 0.2500 kg/ha
  ECHCG rating: 0.0
[3]; Rate 0.0313 kg/ha
  Herbicidal rating ECHORC: 0.0
[3]; Rate 0.0625 kg/ha
  Herbicidal rating ECHORC: 0.0
[3]; Rate 0.1250 kg/ha
  Herbicidal rating ECHORC: 2.0
[3]; Rate 0.2500 kg/ha
  Herbicidal rating ECHORC: 4.0
[4]; rate 0.0158 kg/ha
  IPOHE herbicidal rating: 7.0
[4]; rate 0.0315 kg/ha
  IPOHE herbicidal rating: 9.0
[4]; rate 0.0630 kg/ha
  IPOHE herbicidal rating: 9.0
[5]; rate 0.0158 kg/ha
  GLXMAW herbicidal rating: 4.5
[5]; rate 0.0315 kg/ha
  GLXMAW herbicidal rating: 4.5
[5]; rate 0.0630 kg/ha
  GLXMAW herbicidal rating: 5.5
ABUTH (Velvetleaf) [6]; 0.1250 kg/ha
  ABUTH rating: 4.0
ABUTH (Velvetleaf) [6]; 0.2500 kg/ha
  ABUTH rating: 9.0
[7]; 0.0313 kg/ha
  ECHORC herbicidal effect rating: 0.0
[7]; 0.0625 kg/ha
  ECHORC herbicidal effect rating: 0.0
[7]; 0.1250 kg/ha
  ECHORC herbicidal effect rating: 2.0
[7]; 0.2500 kg/ha
  ECHORC herbicidal effect rating: 4.0
